ChEMBL document CHEMBL5104126, “Discovery of 2,3-dihydro-1H-pyrrolo[3,4-b]quinolin-1-one derivatives as possible antileishmanial agents” (RSC Med Chem, 2022)

Assays:
Leishmania donovani [1] = assay: Antileishmanial activity against Leishmania donovani MHOM/IN/80/Dd8 promastigotes harboring luciferase gene infected in mouse J774 cells assessed as inhibition of parasite viability at 25 uM incubated for 72 hrs by Steady-Glo reagent based luciferase assay relative to control; format: functional; conditions: MHOM/IN/80/Dd8, J774
Leishmania donovani [2] = assay: Antileishmanial activity against Leishmania donovani MHOM/IN/80/Dd8 amastigotes harboring luciferase gene infected in mouse J774 cells assessed as inhibition of parasite viability at 25 uM incubated for 72 hrs by Steady-Glo reagent based luciferase assay relative to control; format: functional; conditions: MHOM/IN/80/Dd8, J774
J774 [3] = assay: Cytotoxicity against mouse macrophage J774 cells assessed as reduction in cell viability at 50 to 100 uM incubated for 72 hrs by MTT assay; format: toxicity, cell-based; conditions: j774, 72 h, dose 50-100 µM
J774 [4] = assay: Cytotoxicity against mouse macrophage J774 cells assessed as reduction in cell viability at 6.25 to 25 uM incubated for 72 hrs by MTT assay; format: toxicity, cell-based; conditions: j774, 72 h, dose 6.25-25 µM
Leishmania donovani [5] = assay: Antileishmanial activity against Leishmania donovani MHOM/IN/80/Dd8 amastigotes harboring luciferase gene infected in mouse J774 cells assessed as inhibition of parasite viability incubated for 72 hrs by Steady-Glo reagent based luciferase assay relative to control; format: functional, organism-based; conditions: MHOM/IN/80/Dd8, J774, 72 h
Leishmania mexicana = assay: Antileishmanial activity against Leishmania mexicana 227 assessed as inhibition of parasite viability; format: functional, organism-based
[6] = Cytotoxicity against human HepG2 cells assessed as inhibition of cell viability incubated for 72 hrs by MTT assay; format: toxicity, cell-based
Leishmania donovani [7] = assay: Antileishmanial activity against Leishmania donovani MHOM/IN/80/Dd8 promastigotes infected in Balb/c mouse assessed as inhibition organ parasite burden in liver at 25 mg/kg, ip for 7 days by Giemsa staining based microscopy; format: functional; conditions: MHOM/IN/80/Dd8, 168 h, time 7 day
[8] = Selectivity index, ratio of CC50 for cytotoxicity against mouse macrophage J774 cells to IC50 for antileishmanial activity against Leishmania donovani MHOM/IN/80/Dd8 amastigotes harboring luciferase gene infected in mouse J774 cells; format: toxicity, cell-based; conditions: read-out: Ratio CC50/IC50
[9] = Selectivity index, ratio of CC50 for cytotoxicity against human HepG2 cells to IC50 for antileishmanial activity against Leishmania donovani MHOM/IN/80/Dd8 amastigotes harboring luciferase gene infected in mouse J774 cells; format: toxicity, cell-based; conditions: read-out: Ratio CC50/IC50
Leishmania donovani [10] = assay: Antileishmanial activity against Leishmania donovani MHOM/IN/80/Dd8 promastigotes harboring luciferase gene infected in mouse J774 cells assessed as inhibition of parasite viability incubated for 72 hrs by Steady-Glo reagent based luciferase assay relative to control; format: functional, organism-based; conditions: MHOM/IN/80/Dd8, J774, 72 h
[11] = Cytotoxicity against mouse macrophage J774 cells assessed as inhibition of cell viability incubated for 72 hrs by MTT assay; format: toxicity, cell-based
Leishmania donovani [12] = assay: Antileishmanial activity against Leishmania donovani MHOM/IN/80/Dd8 promastigotes infected in Balb/c mouse assessed as inhibition organ parasite burden in spleen at 25 mg/kg, ip for 7 days by Giemsa staining based microscopy; format: functional; conditions: MHOM/IN/80/Dd8, 168 h, time 7 day

SMILES | inhibition at 25 µM (Leishmania donovani [1]) [%] | inhibition at 25 µM (Leishmania donovani [2]) [%] | Activity (J774 [3]) | Activity (J774 [4]) | further results
COc1ccc2nc3c(c(-c4ccccc4)c2c1)C1=NC(=O)C2(CCCCC2)N1C3 | 39 | 31 | >= 30% | Non-Toxic | 
COc1ccc2nc3c(c(-c4ccccc4)c2c1)C(=O)N(C(C(=O)NC(C)(C)C)c1ccc(C#N)cc1)C3 (stereo unspecified) | 40 | 45 | >= 30% | Non-Toxic | 
COc1ccc2nc3c(c(-c4ccccc4)c2c1)C(=O)N(C(C(N)=O)c1ccc(F)cc1)C3 (stereo unspecified) | 61 | 46 | >= 30% | Non-Toxic | IC50 (Leishmania donovani [5]): 8.75 µM
COc1ccc2nc3c(c(-c4ccccc4)c2c1)C(=O)N(C1(C(=O)NC(C)(C)C)CCCCC1)C3 | > 70 | 45 | >= 30% | Non-Toxic | IC50 (Leishmania donovani [5]): 5.35 µM
COc1ccc2nc3c(c(-c4ccccc4)c2c1)C(=O)N(C(C(=O)NC(C)(C)C)c1ccc(F)cc1)C3 (stereo unspecified) | 40 | 45 | >= 30% | Non-Toxic | 
COc1ccc2nc3c(c(-c4ccccc4)c2c1)C(=O)N(C(C)(C)C(=O)NC(C)(C)C)C3 | 40 | 45 | >= 30% | Non-Toxic | 
COc1ccc(C(C(=O)NC(C)(C)C)N2Cc3nc4ccc(OC)cc4c(-c4ccccc4)c3C2=O)cc1 (stereo unspecified) | 40 | 45 | >= 30% | Non-Toxic | 
CC(C)(C(N)=O)N1Cc2nc3ccc(Cl)cc3c(-c3ccccc3)c2C1=O | 61 | 46 | >= 30% | Non-Toxic | 
COc1ccc2nc3c(c(C)c2c1)C(=O)N(C(C)(C)C(=O)NC(C)(C)C)C3 | > 70 | 45 | >= 30% | Non-Toxic | IC50 (Leishmania donovani [5]): 7.42 µM
COc1ccc2nc3c(c(-c4ccccc4)c2c1)C1=NC(=O)C(c2ccccc2)N1C3 (stereo unspecified) | 39 | 31 | >= 30% | Non-Toxic | 
CC(C)(C)NC(=O)C(C)(C)N1Cc2nc3ccc(O)cc3c(-c3ccccc3)c2C1=O | 77.2 | 69 | >= 30% | Non-Toxic | 
COc1ccc2nc3c(c(-c4ccccc4)c2c1)C1=NC(=O)C(c2ccc(C#N)cc2)N1C3 (stereo unspecified) | 39 | 31 | >= 30% | Non-Toxic | 
CC(C)(C)NC(=O)C(C)(C)N1Cc2nc3ccccc3c(-c3ccccc3)c2C1=O | 40 | 45 | >= 30% | Non-Toxic | 
CC(C)(C)NC(=O)C(C)(C)N1Cc2nc3ccc(Br)cc3c(-c3ccccc3)c2C1=O | > 70 | 45 | >= 30% | Non-Toxic | IC50 (Leishmania donovani [5]): 10.3 µM
COc1ccc2nc3c(c(-c4ccccc4)c2c1)C1=NC(=O)C(c2ccc(Cl)cc2)N1C3 (stereo unspecified) | 39 | 31 | >= 30% | Non-Toxic | 
COc1ccc2nc3c(c(-c4ccccc4)c2c1)C(=O)N(C1(C(=O)NC(C)(C)C)CCCC1)C3 | 40 | 45 | >= 30% | Non-Toxic | 

SMILES | inhibition at 25 µM (Leishmania donovani [1]) [%] | inhibition at 25 µM (Leishmania donovani [2]) [%] | Activity (J774 [3]) | Activity (J774 [4]) | further results
COc1ccc2nc3c(c(-c4ccccc4)c2c1)C(=O)N(C(C(=O)NC(C)(C)C)c1ccc(C(F)(F)F)cc1)C3 (stereo unspecified) | > 70 | 45 | >= 30% | Non-Toxic | 
COc1ccc2nc3c(c(-c4ccccc4)c2c1)C1=NC(=O)C(c2cc(OC)c(OC)c(OC)c2)N1C3 (stereo unspecified) | 39 | 31 | >= 30% | Non-Toxic | 
CC1(C)C(=O)N=C2c3c(nc4ccc(Br)cc4c3-c3ccccc3)CN21 | 39 | 31 | >= 30% | Non-Toxic | 
COc1ccc2nc3c(c(-c4ccccc4)c2c1)C(=O)N(CC(=O)NC(C)(C)C)C3 | 40 | 45 | >= 30% | Non-Toxic | IC50 (Leishmania donovani [5]): 8.39 µM
COc1ccc2nc3c(c(-c4ccccc4)c2c1)C1=NC(=O)C(C)(C)N1C3 | 39 | 31 | >= 30% | Non-Toxic | 
CC(C)(C(N)=O)N1Cc2nc3ccccc3c(-c3ccccc3)c2C1=O | 61 | 46 | >= 30% | Non-Toxic | 
CC(C)(C)NC(=O)C(c1ccc(F)cc1)N1Cc2nc3ccc(O)cc3c(-c3ccccc3)c2C1=O (stereo unspecified) | 72.7 | 69 | >= 30% | Non-Toxic | 
COc1ccc2nc3c(c(-c4ccccc4)c2c1)C1=NC(=O)C2(CCCC2)N1C3 | 39 | 31 | >= 30% | Non-Toxic | 
CCCCCCOc1c(OC)cc(NC(C)CCCN)c2nccc(C)c12 (stereo unspecified) [WR-242511] |  |  |  |  | IC50 (Leishmania mexicana): 2.5 µM
COc1ccc2nc3c(c(-c4ccccc4)c2c1)C1=NC(=O)C(c2ccc(Br)cc2)N1C3 (stereo unspecified) | 39 | 31 | >= 30% | Non-Toxic | 
COc1ccc2nc3c(c(-c4ccccc4)c2c1)C(=O)N(C(C(=O)NC(C)(C)C)c1ccccc1)C3 (stereo unspecified) | > 70 | 45 | >= 30% | Non-Toxic | 
COc1ccc2nc3c(c(-c4ccccc4)c2c1)C(=O)N(C(C(=O)NC(C)(C)C)c1ccc(O)cc1)C3 (stereo unspecified) | 40 | 45 | >= 30% | Non-Toxic | 
COc1ccc2nc3c(c(-c4ccccc4)c2c1)C(=O)N(C(C(=O)NC(C)(C)C)c1ccc(Cl)cc1)C3 (stereo unspecified) | 40 | 45 | >= 30% | Non-Toxic | IC50 (Leishmania donovani [5]): 10.5 µM
CCCCCCCCCCCCCCCCOP(=O)([O-])OCC[N+](C)(C)C [MILTEFOSINE] |  |  |  |  | CC50 at 72 h [6]: 78.6 µM; inhibition in vivo at 25 mg/kg (Leishmania donovani [7]): 97.4%; IC50 (Leishmania donovani [5]): 6.86 µM; selectivity ratio [8]: 11.8; selectivity ratio [9]: 12.8; IC50 (Leishmania donovani [10]): 6.12 µM; CC50 at 72 h [11]: 72.4 µM; inhibition in vivo at 25 mg/kg (Leishmania donovani [12]): 98.9%
COc1ccc2nc3c(c(-c4ccccc4)c2c1)C(=O)N(C(C(=O)NC(C)(C)C)c1cc(OC)c(OC)c(OC)c1)C3 (stereo unspecified) | 40 | 45 | >= 30% | Non-Toxic | 
